# Laboratory results: US20240245677A1, “SELECTED COMPOUNDS FOR TARGETED DEGRADATION OF BRD9” (C4 THERAPEUTICS, INC., priority 2021, published 2024)
# Assays:
# [1] = Rat Hepatocyte Stability Assay; format: in vitro ADME; conditions: Sprague-Dawley, cryopreserved hepatocytes
# Protocol: (§1) The metabolic stability of Compound 1 was evaluated using cryopreserved hepatocytes from mice, rats, dogs, cynomolgus monkeys, and humans.
# (§2) 50 μL of 1 mM intermediate solutions for each test compound was prepared by adding 5 μL of 10 mM stock solution to 45 μL of a 1:1 mixture of water and acetonitrile. A 2 μM working stocks for each test compound were prepared in incubation media, InvitroGRO™ KHB (Bio IVT, Westbury, NY, USA), by adding 2 μL of 1 mM intermediate stock to 998 μL of incubation media.
# (§3) To thaw the hepatocytes, InvitroGRO™ HT thawing medium (BioIVT, Westbury, NY, USA) was prewarmed to 37° C., and 48 mL of warmed thawing medium was transferred to a sterile 50 mL conical tube. The hepatocyte vial was removed from the liquid nitrogen Dewar, and gently thawed in a water bath at 37° C. for 1-2 minutes, then the contents of the vial were emptied into a conical tube with prewarmed InvitroGRO HT medium. 1 mL of prewarmed InvitroGRO HT medium was added to each emptied hepatocyte vial to resuspend any remaining cells, and the contents were pipetted into the hepatocyte suspension. The tube containing the hepatocyte suspension was centrifuged at 50*g for 5 minutes. The supernatant was removed carefully, and the remaining pellet was resuspended by adding 1 mL of incubation media, InvitroGRO KHB, and gently shaking until there were no clumps.
# (§4) Cell viability was determined using the trypan blue method. 25 μL of hepatocyte cell suspension was added to a trypan blue (TB) solution (containing 775 μL InvitroGRO KHB and 200 μL of Trypan Blue). Cell count was taken using a hemacytometer.
# (§5) For mouse hepatocytes, 200 μL of hepatocytes (0.8×10^6 cells/mL) were added to the wells of a 48 well plate (Catalog No. 92048, TPP Techno Plastic Products AG, Trasadingen, Switzerland) and pre-incubated for 30 minutes at 37° C. For rat, dog, monkey, […], 200 μL of hepatocytes (2×10^6 cells/mL) were added to the wells of a 48 well plate (Catalog No. 92048, TPP Techno Plastic Products AG, Trasadingen, Switzerland) and pre-incubated for 30 minutes at 37° C.
# (§6) For all species of hepatocytes, once the pre-incubation period was complete, 200 μL of 2 μM working stock of test compound was added to the wells of the plate, and the plate was vortexed on a Vibramax™ 100 (P/N 544-21200-00, Heidolph Instruments GmbH & Co. KG, Schwabach, Germany) at 500 rpm in a 37° C. CO2 incubator (Model No. 51026280, ThermoFisher Scientific, Waltham, MA, USA). At each time point of 0, 15, 30, 60, 90, and 120 minutes, 50 μL of incubation mixture was precipitated with 200 μL of acetonitrile containing internal standard.
# (§7) At the end of the experiment, the samples were centrifuged at 4000 rpm for 10 minutes. […]
# [2] = test system: cryopreserved hepatocytes from Sprague-Dawley rats; test: Rat Hepatocyte Stability Assay; format: in vitro ADME
# Protocol: as §1, §2, §3, §4, §5, §6, §7
# [3] = Salt and cocrystal evaluation (equilibration, cooling, slow evaporation, anti-solvent, re-equilibration); format: physicochemical
# Protocol: Compound 1 was investigated with a variety of salts to find additional morphic forms and cocrystals. This salt and cocrystal investigation for Compound 1 was performed with free form Pattern A*. This is a hydrate with medium crystallinity. […] Acetone, methanol, ethyl acetate and acetonitrile were used as evaluation solvents. Five crystallization methods, including equilibration, fast cooling, slow evaporation, addition of anti-solvent and re-equilibration, were applied to obtain salt or cocrystal hits. From these investigations only one crystalline form—a urea cocrystal Form P was identified.
# Based on the pKa of free form, 14 acids were selected for evaluation in acetone and methanol. About 30 mg of Compound 1 free form and 1 or 2 equivalents of salt forming agents 5 were weighed into 2 mL glass vials. 200 μL of acetone or methanol was added. […] To avoid degradation, experiments with strong acids were conducted without heating. Samples were stirred at 25° C. for 2 days. Obtained suspensions were taken out and centrifuged. Then wet cakes were dried at 25° C. under vacuum for 2 h. Obtained solids were analyzed by XRPD and results were summarized.
# To obtain crystalline salts, another two solvents including ethyl acetate and acetonitrile were added as solvents. About 30 mg of Compound 1 free form and 1 or 2 equivalents of salt forming agents were weighed into 2 mL glass vials. 400 μL of ethyl acetate or 300 μL of acetonitrile was added. Samples were stirred at 25° C. for 2 days. Obtained solids were analyzed by XRPD and results were summarized.
# Nicotinamide and urea were selected as crystallization agents for cocrystal evaluation. Acetone, methanol, ethyl acetate and acetonitrile were used as solvents. About 30 mg of Compound 1 free form, and 1 equivalent of crystallization agent were weighed into 2 mL glass vials. […] of acetone, 200 μL of methanol, […] of ethyl acetate or 300 µL of acetonitrile was added. Obtained suspensions were stirred at 25° C. for 2 days. Obtained solids were analyzed by XRPD and results were summarized.
# Supernatants obtained from equilibration experiments were cooled to 5° C. and stirred at 5° C. for 3 days. Then obtained suspensions were centrifuged at 5° C. and solids were dried under vacuum at 25° C. for 2 h. No crystalline salt was obtained.
# No crystalline hits were obtained.
# Amorphous salts from above experiments were re-equilibrated at 25° C. for crystallization. No crystalline salt hits were obtained.
smiles,measurement,setting,value
"COc1cc(-c2cn(C)c(=O)c(C)c2C)cc(OC)c1CN1CC[C@H](N2CCN(c3ccc(N[C@H]4CCC(=O)NC4=O)cc3F)CC2)C(F)(F)C1 [Compound 1, (S)-3-((4-(4-((S)-1-(2,6-dimethoxy-4-(1,4,5-trimethyl-6-oxo-1,6-dihydropyridin-3-yl)benzyl)-3,3-difluoropiperidin-4-yl)piperazin-1-yl)-3-fluorophenyl)amino)-piperidine-2,6-dione]",half-life at 1 µM,[1],> 2 h
same,hepatocyte CLint at 1 µM,[1]; read-out: CL int cells,3.7 µL/min/1e6 cells
same,CLh int in vivo,[2],17.76 mL/min/Kg body wt.
same,CLhb scaled well stirred,[2],14.2 mL/min/kg body wt.
same,Results (re-equilibration for 8 days) Acetone,"[3]; 1.05 equiv. Sulfuric acid, Acetone, +200 μL EA",Free form Pattern B*
same,Results (re-equilibration for 8 days) Acetone,"[3]; 2.10 equiv. Hydrochloric acid, Acetone, +100 μL ACN","+100 μL ACN, Gel-like sample"
same,Results (re-equilibration for 8 days) Acetone,"[3]; 2.10 equiv. Methanesulfonic acid, Acetone, +200 μL EA","+200 μL EA, Gel-like sample"
same,Results (anti-solvent addition) A Acetone,"[3]; 2.10 equiv. Trifluoroacetic acid, Acetone, +400 μL MTBE",Clear solution
same,"Results (anti-solvent addition) C EA, XRPD","[3]; 2.10 equiv. Trifluoroacetic acid, EA, +200 μL MTBE, suspension, AF = Amorphous form",XRPD: AF*
same,Results (cooling) A Acetone,"[3]; cooled to 5° C., 3 days, 1.05 equiv. Fumaric acid, Acetone",Clear Solution
same,Results (cooling) A Acetone,"[3]; cooled to 5° C., 3 days, 1.05 equiv. Sulfuric acid, Acetone",Clear Solution
same,Results (cooling) B MeOH,"[3]; cooled to 5° C., 3 days, 1.05 equiv. Sulfuric acid",Clear Solution
same,Results (cooling) B MeOH,"[3]; cooled to 5° C., 3 days, 2.10 equiv. Citric acid",Clear Solution
same,Results (cooling) A Acetone,"[3]; cooled to 5° C., 3 days, 2.10 equiv. Fumaric acid, Acetone",Clear Solution
same,Results (cooling) A Acetone,"[3]; cooled to 5° C., 3 days, 2.10 equiv. Hydrochloric acid, Acetone",Clear Solution
same,Results (cooling) B MeOH,"[3]; cooled to 5° C., 3 days, 2.10 equiv. Hydrochloric acid",Clear Solution
same,Results (cooling) A Acetone,"[3]; cooled to 5° C., 3 days, 2.10 equiv. L-Malic acid, Acetone",Clear Solution
same,Results (cooling) B MeOH,"[3]; cooled to 5° C., 3 days, 2.10 equiv. Maleic acid",Clear Solution
same,Results (cooling) B MeOH,"[3]; cooled to 5° C., 3 days, 2.10 equiv. Methanesulfonic acid",Clear Solution
same,Results (cooling) A Acetone,"[3]; cooled to 5° C., 3 days, 2.10 equiv. Succinic acid, Acetone",Clear Solution
same,Results (cooling) A Acetone,"[3]; cooled to 5° C., 3 days, 2.10 equiv. Sulfuric acid, Acetone",Clear Solution
same,Results (cooling) B MeOH,"[3]; cooled to 5° C., 3 days, 2.10 equiv. Sulfuric acid",Clear Solution
same,Results (cooling) D ACN,"[3]; cooled to 5° C., 3 days, 2.10 equiv. Trifluoroacetic acid, ACN",Clear Solution
same,Results (cooling) A Acetone,"[3]; cooled to 5° C., 3 days, 2.10 equiv. Trifluoroacetic acid, Acetone",Clear Solution
same,Results (cooling) C EA,"[3]; cooled to 5° C., 3 days, 2.10 equiv. Trifluoroacetic acid, EA",Clear Solution
same,Results (cooling) B MeOH,"[3]; cooled to 5° C., 3 days, 2.10 equiv. Trifluoroacetic acid",Clear Solution
same,Results (cooling) B MeOH,"[3]; cooled to 5° C., 3 days, 2.10 equiv. p-Toluenesulfonic acid",Clear Solution
same,Results A Acetone,"[3]; equilibration, 1.05 equiv. Fumaric acid, Acetone",Clear solution
same,Results A Acetone,"[3]; equilibration, 1.05 equiv. Nicotinamide, Acetone",Clear solution
same,Results A Acetone,"[3]; equilibration, 1.05 equiv. Urea, Acetone",Clear solution
same,Results A Acetone,"[3]; equilibration, 2.10 equiv. Adipic acid, Acetone",Clear solution
same,Results A Acetone,"[3]; equilibration, 2.10 equiv. Fumaric acid, Acetone",Clear solution
same,Results A Acetone,"[3]; equilibration, 2.10 equiv. L-Malic acid, Acetone",Clear solution
same,Results C EA,"[3]; equilibration, 2.10 equiv. Methanesulfonic acid, EA, AF = Amorphous form",AF MSA salt*
same,Results A Acetone,"[3]; equilibration, 2.10 equiv. Succinic acid, Acetone",Clear solution
same,Results D ACN,"[3]; equilibration, 2.10 equiv. Trifluoroacetic acid, ACN",Clear solution
same,Results A Acetone,"[3]; equilibration, 2.10 equiv. Trifluoroacetic acid, Acetone",Clear solution
same,Results C EA,"[3]; equilibration, 2.10 equiv. Trifluoroacetic acid, EA",Clear solution
